From patent US4477664A, “Novel 1-(4-piperidiniobenzyl)-2,3-dioxopiperazine derivatives or acid addition salts thereof” (Toyama Chemical Co., Ltd., priority 1979, dated 1984)
In brackets after ≈: the same amount, converted by molar mass.

Assays:
HeLa S3 cells = assay: MIC value against HeLa S3 cells (microplate method); assay type: cell-based; conditions: Homo sapiens, 96 h, 2×10^4 cells/ml, 4 days, Giemsa staining
From the text: (§1) a. MIC value against HeLa S3 cells and Ehrlich cells (microplate method) Number of cells: 2×10^4 cells/ml Culture medium: Eagle's MEM+20% calf embryonic serum Culture time: 4 days Judgement: Giemsa staining

Ehrlich cells = assay: MIC value against Ehrlich cells (microplate method); assay type: cell-based; conditions: 96 h, 2×10^4 cells/ml, 4 days, Giemsa staining
From the text: as §1

[1] = tested on: Ehrlich ascites carcinoma cells; assay: Effect on Ehrlich carcinoma (i): intraperitoneal inoculation, mean survival days; assay type: in vivo, ICR-strain mice; conditions: Mus musculus, ip, 168 h, once a day for 7 days, read-out: T/C (mean survival days)
Procedure: (i) Ehrlich ascites carcinoma cells (1×10^6 cells/head) were inoculated intraperitoneally into ICR-strain mice (female, 6 to 7 weeks old, each group consisting of 5 or 4 mice), and after 24 hours, the […] The effect thereof was judged from the mean survival days.
The test drugs were used in the form of a solution or suspension in a saline solution or a 0.3% carboxymethyl cellulose-containing saline solution. [formula]

[2] = tested on: Ehrlich ascites carcinoma cells; assay: Effect on Ehrlich carcinoma (ii): subcutaneous inoculation at inguinal region, mean tumor weight; assay type: in vivo, ICR-strain mice; conditions: intraperitoneally, once a day for 5 days, judgement day 13
Procedure: (ii) Ehrlich ascites carcinoma cells (4×10^6 cells/head) were inoculated subcutaneously at the inguinal region into ICR-strain mice (female, 6 to 7 weeks old, each group consisting of 5 or 4 mice), and after 24 hours, the intraperitaneal or oral administration of a test drug was started and effected once a day for 5 days. The effect thereof was judged from the mean weight of tumor on the 13th or 15th day, respectively.
The test drug was used in the form of a solution or suspension in a saline solution or a 0.3% carboxymethyl cellulose-containing saline solution. [formula]

[3] = tested on: Ehrlich ascites carcinoma cells; assay: Effect on Ehrlich carcinoma (iii): subcutaneous inoculation at right armpit, mean tumor weight; assay type: in vivo, ICR-strain mice; conditions: 100 mg/kg, orally, once a day for 7 days, 14th day
Procedure: (iii) Ehrlich ascites carcinoma cells (4×10^6 cells/head) were inoculated subcutaneously at the right armpit region into ICR-strain mice (female, 7 weeks old, each group consisting of 6 or 7 mice), and after 24 hours, the oral administration or subcutaneous administration at the dorsal region of a test drug was started, and effected once a day for 7 days. The effect thereof was judged from the mean weight of the tumor on the 14th day. The test drug was used in the form of a solution or suspension in a saline solution or a 0.3% carboxymethyl cellulose-containing saline solution.
T/C was calculated in the same manner as in above (ii).

L-1210 ascites cells = assay: Effect on L-1210 leukemia (i): intraperitoneal inoculation, mean survival days; assay type: in vivo, BDF1-strain mice; conditions: 50 mg/kg
Procedure: (i) L-1210 ascites cells (1×10^5 cells/head) were inoculated intraperitoneally into BDF1 -strain mice (female, 6 weeks old, each group consisting of 4 mice), and after 24 hours, the intraperitoneal administration of a test drug was started and effected once a day. The effect thereof was judged from the mean survival days. The test drug was used in the form of a solution or suspension in a saline solution or a 0.3% carboxymethyl cellulose-containing saline solution.
T/C was calculated in the same manner as in above b (i).

Acute toxicity = conditions: mouse, in vivo, ip; intraperitoneal, once, male mice, observed for 7 days
From the text: The test drugs were used in the form of a solution or suspension in a saline solution or a 0.3% carboxymethyl cellulose-containing saline solution.

| SMILES | MIC (HeLa S3 cells) [µg/mL] | MIC (Ehrlich cells) [µg/mL] | response vs control in vivo at 100 mg/kg [1] [%] | also measured |
| --- | --- | --- | --- | --- |
| Cc1ccc(Nc2ccc(CN3CCN(Cc4ccccc4)C(=O)C3=O)cc2)nc1 [Compound 25] | 0.39 (≈ 0.974 µM) | 0.39 (≈ 0.974 µM) | – | – |
| CCCCCCN1CCN(Cc2ccc(N(CC)CC)cc2)C(=O)C1=O [Compound 26] | 3.13 (≈ 8.71 µM) | 3.13 (≈ 8.71 µM) | – | response vs control in vivo at 40 mg/kg [1]: 157%; T/C (mean tumor weight) ([2]; 6.25 mg/kg): 64%; T/C (mean tumor weight) ([2]; 12.5 mg/kg): 67%; T/C (mean tumor weight) ([2]; 25 mg/kg): 61% |
| CC=CC=CCN1CCN(Cc2ccc(N(CC)CC)cc2)C(=O)C1=O [Compound 27] | 6.25 (≈ 17.6 µM) | 6.25 (≈ 17.6 µM) | – | – |
| CCCCCCN1CCN(Cc2ccc(N(CC)CC)c(Cl)c2)C(=O)C1=O [Compound 28] | 12.5 (≈ 31.7 µM) | 12.5 (≈ 31.7 µM) | 165 | response vs control in vivo at 40 mg/kg [1]: > 173% |
| CCCCCCN1CCN(Cc2ccc(N(CC)CC)c(C)c2)C(=O)C1=O [Compound 29] | 12.5 (≈ 33.5 µM) | 12.5 (≈ 33.5 µM) | 184 | – |
| CCCCCCN1CCN(Cc2ccc(N(CC)CC)cc2Cl)C(=O)C1=O [Compound 30] | 3.13 (≈ 7.94 µM) | 3.13 (≈ 7.94 µM) | 152 | – |
| CCCCCCN1CCN(Cc2ccc(N3CCCCC3)cc2)C(=O)C1=O [Compound 31] | 3.13 (≈ 8.42 µM) | 3.13 (≈ 8.42 µM) | – | – |
| CCCCCCN1CCN(Cc2ccc(NCC)cc2)C(=O)C1=O [Compound 32] | 6.25 (≈ 18.9 µM) | 6.25 (≈ 18.9 µM) | – | – |
| CCCCCCN1CCN(Cc2ccc(NC(C)C)cc2)C(=O)C1=O [Compound 33] | 0.78 (≈ 2.26 µM) | 0.78 (≈ 2.26 µM) | – | – |
| CCCCCCN1CCN(Cc2ccc(NC(=O)CCl)cc2)C(=O)C1=O [Compound 34] | 0.39 (≈ 1.03 µM) | 0.39 (≈ 1.03 µM) | > 142 | response vs control in vivo at 200 mg/kg ([1]; 200 mg/kg): 157% |
| CCCCCCN1CCN(Cc2ccc(NCc3ccncc3)cc2)C(=O)C1=O [Compound 35] | 6.25 (≈ 15.8 µM) | 6.25 (≈ 15.8 µM) | > 187 | response vs control in vivo at 50 mg/kg [1]: 146% |
| CCN(CC)c1ccc(CN2CCN(Cc3cnc(Cl)nc3Cl)C(=O)C2=O)cc1 [Compound 36] | 12.5 (≈ 28.6 µM) | 12.5 (≈ 28.6 µM) | 204 | response vs control in vivo at 40 mg/kg [1]: > 190% |
| CCN(CC)c1ccc(CN2CCN(CCN)C(=O)C2=O)cc1 [Compound 37] | 25 (≈ 78.5 µM) | 25 (≈ 78.5 µM) | – | T/C (mean tumor weight) ([2]; 25 mg/kg): 54%; T/C (mean tumor weight) ([2]; 50 mg/kg): 52%; T/C (mean tumor weight) ([2]; 100 mg/kg): 65% |
| CCN(CC)c1ccc(CN2CCN(Cc3ccccn3)C(=O)C2=O)cc1 [Compound 38] | 25 (≈ 68.2 µM) | 25 (≈ 68.2 µM) | 160 | – |
| CCN(CC)c1ccc(CN2CCN(Cc3cccnc3)C(=O)C2=O)cc1 [Compound 39] | 25 (≈ 68.2 µM) | 25 (≈ 68.2 µM) | > 164 | – |
| CCN(CC)c1ccc(CNCCN2CCN(Cc3ccc(N(CC)CC)cc3)C(=O)C2=O)cc1 [Compound 40] | 12.5 (≈ 26.1 µM) | 12.5 (≈ 26.1 µM) | – | response vs control in vivo at 30 mg/kg ([1]; 30 mg/kg): 154% |
| Cc1nc(Nc2ccc(CN3CCN(Cc4ccccc4)C(=O)C3=O)cc2)ccc1N [Compound 42] | < 0.05 | < 0.05 | – | T/C (mean tumor weight) [3]: 54%; response vs control in vivo at 50 mg/kg [1]: 149%; T/C (mean survival days) (L-1210 ascites cells; 7 administrations): 148%; LD50 at 168 h (Acute toxicity): > 200 mg/kg |
| Cc1cc(Nc2ccc(CN3CCN(Cc4ccccc4)C(=O)C3=O)cc2)ncc1N [Compound 43] | < 0.05 | < 0.05 | – | T/C (mean survival days) (L-1210 ascites cells; 7 administrations): 143%; LD50 at 168 h (Acute toxicity): > 200 mg/kg |
| Cc1cc(Nc2ccc(CN3CCN(Cc4ccccc4)C(=O)C3=O)cc2)nc(C)c1N [Compound 44] | 0.78 (≈ 1.82 µM) | 0.78 (≈ 1.82 µM) | – | T/C (mean survival days) (L-1210 ascites cells; 3 administrations): 137%; LD50 at 168 h (Acute toxicity): > 200 mg/kg |
| Nc1cnc(Nc2ccc(CN3CCN(Cc4ccccc4)C(=O)C3=O)cc2)nc1 [Compound 45] | 0.05 (≈ 0.124 µM) | 0.05 (≈ 0.124 µM) | – | – |
